{"source": "patent US8383581B2", "about": "“Short-chain peptides as parathyroid hormone (PTH) receptor agonist” (Cadila Healthcare Limited, priority 2009, dated 2013)", "tested_on": "ovariectomised (OVX) rats", "assay": "In vivo anti-osteoporosis activity testing in OVX rat model (serum calcium, phosphate, bone parameters)", "parameters": "species or system Female Wistar Rats", "conditions": "po", "from_the_text": "c) In Vivo Anti-Osteoporosis Activity Testing in OVX Rat Model: The ovariectomised (OVX) rats were used to study anti-osteoporosis activity of test compounds (short-chain peptides) in vivo. The OVX rats develop osteopenia due to ovarian hormone deficiency. Osteopenia can be detected as early as 14 days post OVX, increase for the next 100 days and then stabilised (Wronski T. J., et al., Calcif. Tissue Int., 43(3), 1988, 179-183). Detailed Study Protocol to Evaluate the Effects of Anabolic Therapy on Bone Markers and Histomorphometry in OVX Animals: 10 to 11 weeks old Female Wistar Rats (150-200 g) were used. The animals were kept in individually ventilated cages in a room with controlled temperature (23°±3° C.), lighting (12:12 h light-dark cycle) and relative humidity (55±10%). Animals had free access to standard rat chow and water. Protocol for use of animals for conducting this study has been reviewed and approved by Institutional Animal Ethics Committee (IAEC). The animals were marked with picric acid for identification and acclimatized to experimental room conditions for 2 days prior to initiation of the study. For the induction of osteoporosis, rats were bilaterally ovariectomised under anesthesia. For Ovariectomy, Incision was made on dorsa-lateral side near lumbar region of animal. After that, ovary was excised and the veins were tied with ligature before removing ovary to prevent blood loss. Then incision was sutured back with ligature. After Bilateral ovariectomy, animals were allowed to rest for 4 weeks. They were then divided into different groups (n=9) based on their body weight. The groups consisted of a no treatment control, PTH as standard and one or two groups of test compounds (short-chain peptides). The treatment was given for the duration of 6 weeks. At the last day of treatment animals were kept overnight in metabolic cages under fasting for the collection of Urine. Next day, blood was collected after 24 hours of last dosing and animals were sacrificed. Changes in biochemical parameters and bone turnover parameters (Increase in serum Calcium and decrease in Phosphate levels, Acid Phosphatase and TRAP) were evaluated in the urine and serum. After sacrificing, intact femur and tibial bones are removed and cleaned from adherent tissues, muscles and tendons; weighed and collected in formal saline (10% formaldehyde solution). Lumbar vertebra (L5) was excised, carefully cleaned and collected in formal saline. Femur, tibia and Lumbar vertebra-5 (L5) were later processed for histomorphometric evaluation (Zhang L., et al., Tohoku J Exp Med., 1998, 186(2), 131-41; Tanizawa T., et al., Toxicol Lett., 1998, 102, 399-403).", "note": "Where a SMILES comes first, the peptide text is derived from it. [ ]: non-standard residue; d: D form. ξ: configuration not given here. ξBip(2'-Et-4'-OMe) = CCc1cc(OC)ccc1-c1ccc(CC(N)C(=O)O)cc1; Arg(NO2) = N=C(NCCC[C@H](N)C(=O)O)N[N+](=O)[O-]; ξαMePhe(2,6-F2) = CC(N)(Cc1c(F)cccc1F)C(=O)O; ξαMePhe(2-F) = CC(N)(Cc1ccccc1F)C(=O)O; hArg = N=C(N)NCCCC[C@H](N)C(=O)O; hCit = NC(=O)NCCCC[C@H](N)C(=O)O; Cit = NC(=O)NCCC[C@H](N)C(=O)O; ξhhPhe = NC(CCCc1ccccc1)C(=O)O; Nle = CCCC[C@H](N)C(=O)O; Ac5c = NC1(C(=O)O)CCCC1; Ac3c = NC1(C(=O)O)CC1; Aib = CC(C)(N)C(=O)O"}
{"smiles": "CCCC[C@H](NC(=O)C(C)(Cc1c(F)cccc1F)NC(=O)[C@H](CCC(N)=O)NC(=O)[C@@H](NC(=O)[C@H](CCC(=O)O)NC(=O)C(C)(C)NC(=O)[C@@H](NC(=O)C1(N)CCCC1)C(C)C)[C@@H](C)CC)C(=O)N[C@@H](Cc1c[nH]cn1)C(=O)N[C@@H](CCC(N)=O)C(=O)N[C@@H](CCCNC(N)=O)C(=O)N[C@@H](C)C(=O)NC(C)(Cc1c(F)cccc1F)C(=O)NC(C)(Cc1c(F)cccc1F)C(N)=O", "note": "(some centres unmarked) [Seq. ID. 391] (H-[Ac5c]V[Aib]EIQ[ξαMePhe(2,6-F2)][Nle]HQ[Cit]A[ξαMePhe(2,6-F2)][ξαMePhe(2,6-F2)]-NH2)", "values": [{"measurement": "% decrease in serum PO4 Levels (mg/dl) vs control", "setting": "0.1 mg/kg", "result": 59, "unit": "%"}, {"measurement": "% increase in serum Ca^2+ Levels (mg/dl) vs control", "setting": "0.1 mg/kg", "result": 82, "unit": "%"}]}
{"smiles": "CCCC[C@H](NC(=O)C(C)(Cc1c(F)cccc1F)NC(=O)[C@H](CCC(N)=O)NC(=O)[C@@H](NC(=O)[C@H](CCC(=O)O)NC(=O)C(C)(C)NC(=O)[C@@H](NC(=O)C1(N)CCCC1)C(C)C)[C@@H](C)CC)C(=O)N[C@@H](Cc1c[nH]cn1)C(=O)N[C@@H](CCC(N)=O)C(=O)N[C@@H](CCCNC(N)=O)C(=O)N[C@@H](C)C(=O)N[C@@H](CCCNC(=N)N[N+](=O)[O-])C(=O)NC(C)(Cc1c(F)cccc1F)C(N)=O", "note": "(some centres unmarked) [Seq. ID. 407] (H-[Ac5c]V[Aib]EIQ[ξαMePhe(2,6-F2)][Nle]HQ[Cit]A[Arg(NO2)][ξαMePhe(2,6-F2)]-NH2)", "values": [{"measurement": "% decrease in serum PO4 Levels (mg/dl) vs control", "setting": "0.03 mg/kg", "result": 81, "unit": "%"}, {"measurement": "% increase in serum Ca^2+ Levels (mg/dl) vs control", "setting": "0.03 mg/kg", "result": 77, "unit": "%"}]}
{"smiles": "CCCC[C@H](NC(=O)C(C)(Cc1c(F)cccc1F)NC(=O)[C@H](CCC(N)=O)NC(=O)[C@@H](NC(=O)[C@H](CCC(=O)O)NC(=O)C(C)(C)NC(=O)[C@@H](NC(=O)C(C)(C)N)C(C)C)[C@@H](C)CC)C(=O)N[C@@H](Cc1c[nH]cn1)C(=O)N[C@@H](CCC(N)=O)C(=O)N[C@@H](CCCCNC(N)=O)C(=O)N[C@@H](C)C(=O)N[C@@H](CCCNC(=N)N[N+](=O)[O-])C(=O)NC(C)(Cc1c(F)cccc1F)C(N)=O", "note": "(some centres unmarked) [Seq. ID. 469] (H-[Aib]V[Aib]EIQ[ξαMePhe(2,6-F2)][Nle]HQ[hCit]A[Arg(NO2)][ξαMePhe(2,6-F2)]-NH2)", "values": [{"measurement": "% decrease in serum PO4 Levels (mg/dl) vs control", "setting": "0.01 mg/kg", "result": 65, "unit": "%"}, {"measurement": "% increase in serum Ca^2+ Levels (mg/dl) vs control", "setting": "0.01 mg/kg", "result": 43, "unit": "%"}]}
{"smiles": "CCCC[C@H](NC(=O)C(C)(Cc1c(F)cccc1F)NC(=O)[C@H](CCC(N)=O)NC(=O)[C@@H](NC(=O)[C@H](CCC(=O)O)NC(=O)C(C)(C)NC(=O)[C@@H](NC(=O)C1(N)CCCC1)C(C)C)[C@@H](C)CC)C(=O)N[C@@H](Cc1c[nH]cn1)C(=O)N[C@@H](CCC(N)=O)C(=O)NC(C)(Cc1c(F)cccc1F)C(=O)N[C@@H](C)C(=O)NC(C)(Cc1c(F)cccc1F)C(=O)NC(C)(Cc1ccccc1F)C(N)=O", "note": "(some centres unmarked) [Seq. ID. 511] (H-[Ac5c]V[Aib]EIQ[ξαMePhe(2,6-F2)][Nle]HQ[ξαMePhe(2,6-F2)]A[ξαMePhe(2,6-F2)][ξαMePhe(2-F)]-NH2)", "values": [{"measurement": "% decrease in serum PO4 Levels (mg/dl) vs control", "setting": "1 mg/kg", "result": 88, "unit": "%"}, {"measurement": "% increase in serum Ca^2+ Levels (mg/dl) vs control", "setting": "1 mg/kg", "result": 84, "unit": "%"}]}
{"smiles": "CCCC[C@H](NC(=O)C(C)(Cc1ccccc1F)NC(=O)[C@H](CCC(N)=O)NC(=O)[C@@H](NC(=O)[C@H](CCC(=O)O)NC(=O)C(C)(C)NC(=O)[C@@H](NC(=O)C1(N)CCCC1)C(C)C)[C@@H](C)CC)C(=O)N[C@@H](Cc1c[nH]cn1)C(=O)N[C@@H](CCC(N)=O)C(=O)NC(C)(C)C(=O)NC(C)(C)C(=O)NC(C)(C)C(=O)NC(C)(Cc1ccccc1F)C(N)=O", "note": "(some centres unmarked) [Seq. ID. 556] (H-[Ac5c]V[Aib]EIQ[ξαMePhe(2-F)][Nle]HQ[Aib][Aib][Aib][ξαMePhe(2-F)]-NH2)", "values": [{"measurement": "% decrease in serum PO4 Levels (mg/dl) vs control", "setting": "5 mg/kg", "result": 84, "unit": "%"}, {"measurement": "% increase in serum Ca^2+ Levels (mg/dl) vs control", "setting": "5 mg/kg", "result": 77, "unit": "%"}]}
{"smiles": "CCCC[C@H](NC(=O)C(C)(Cc1c(F)cccc1F)NC(=O)[C@H](CCC(N)=O)NC(=O)[C@@H](NC(=O)[C@H](CCC(=O)O)NC(=O)C(C)(C)NC(=O)[C@@H](NC(=O)C1(N)CCCC1)C(C)C)[C@@H](C)CC)C(=O)N[C@@H](Cc1c[nH]cn1)C(=O)N[C@@H](CCC(N)=O)C(=O)NC(C)(C)C(=O)N[C@@H](C)C(=O)N[C@@H](CCCNC(=N)N[N+](=O)[O-])C(=O)NC(C)(Cc1c(F)cccc1F)C(N)=O", "note": "(some centres unmarked) [Seq. ID. 599] (H-[Ac5c]V[Aib]EIQ[ξαMePhe(2,6-F2)][Nle]HQ[Aib]A[Arg(NO2)][ξαMePhe(2,6-F2)]-NH2)", "values": [{"measurement": "% decrease in serum PO4 Levels (mg/dl) vs control", "setting": "0.03 mg/kg", "result": 90, "unit": "%"}, {"measurement": "% increase in serum Ca^2+ Levels (mg/dl) vs control", "setting": "0.03 mg/kg", "result": 110, "unit": "%"}]}
{"smiles": "CCc1cc(OC)ccc1-c1ccc(CC(NC(=O)[C@H](CCCCN)NC(=O)[C@H](C)NC(=O)[C@H](CCCCNC(=N)N)NC(=O)[C@H](CCC(N)=O)NC(=O)[C@H](Cc2c[nH]cn2)NC(=O)[C@H](CCSC)NC(=O)[C@H](CC(C)C)NC(=O)[C@H](CCC(N)=O)NC(=O)[C@@H](NC(=O)[C@H](CCC(=O)O)NC(=O)C2(NC(=O)[C@@H](NC(=O)C(C)(C)N)C(C)C)CC2)[C@@H](C)CC)C(=O)NC(CCCc2ccccc2)C(N)=O)cc1", "note": "(some centres unmarked) [Seq. ID. 607] (H-[Aib]V[Ac3c]EIQLMHQ[hArg]AK[ξBip(2'-Et-4'-OMe)][ξhhPhe]-NH2)", "values": [{"measurement": "% decrease in serum PO4 Levels (mg/dl) vs control", "setting": "0.01 mg/kg", "result": 88, "unit": "%"}, {"measurement": "% increase in serum Ca^2+ Levels (mg/dl) vs control", "setting": "0.01 mg/kg", "result": 78, "unit": "%"}]}
{"smiles": "CCCC[C@H](NC(=O)[C@H](CC(C)C)NC(=O)[C@H](CCC(N)=O)NC(=O)[C@@H](NC(=O)[C@H](CCC(=O)O)NC(=O)C(C)(C)NC(=O)[C@@H](NC(=O)C1(N)CC1)C(C)C)[C@@H](C)CC)C(=O)N[C@@H](Cc1c[nH]cn1)C(=O)N[C@@H](CCC(N)=O)C(=O)N[C@@H](CCCCNC(=N)N)C(=O)N[C@@H](C)C(=O)N[C@@H](CCCCN)C(=O)NC(Cc1ccc(-c2ccc(OC)cc2CC)cc1)C(N)=O", "note": "(some centres unmarked) [Seq. ID. 649] (H-[Ac3c]V[Aib]EIQL[Nle]HQ[hArg]AK[ξBip(2'-Et-4'-OMe)]-NH2)", "values": [{"measurement": "% decrease in serum PO4 Levels (mg/dl) vs control", "setting": "2 mg/kg", "result": 82, "unit": "%"}, {"measurement": "% increase in serum Ca^2+ Levels (mg/dl) vs control", "setting": "2 mg/kg", "result": 86, "unit": "%"}]}
{"smiles": "CCCC[C@H](NC(=O)[C@H](CC(C)C)NC(=O)[C@H](CCC(N)=O)NC(=O)[C@@H](NC(=O)[C@H](CCC(=O)O)NC(=O)C(C)(C)NC(=O)[C@@H](NC(=O)C1(N)CCCC1)C(C)C)[C@@H](C)CC)C(=O)N[C@@H](Cc1c[nH]cn1)C(=O)N[C@@H](CCC(N)=O)C(=O)N[C@@H](CCCCNC(=N)N)C(=O)N[C@@H](C)C(=O)N[C@@H](CCCNC(=N)N[N+](=O)[O-])C(=O)NC(Cc1ccc(-c2ccc(OC)cc2CC)cc1)C(=O)NC(CCCc1ccccc1)C(N)=O", "note": "(some centres unmarked) [Seq. ID. 686] (H-[Ac5c]V[Aib]EIQL[Nle]HQ[hArg]A[Arg(NO2)][ξBip(2'-Et-4'-OMe)][ξhhPhe]-NH2)", "values": [{"measurement": "% decrease in serum PO4 Levels (mg/dl) vs control", "setting": "3 mg/kg", "result": 80, "unit": "%"}, {"measurement": "% increase in serum Ca^2+ Levels (mg/dl) vs control", "setting": "3 mg/kg", "result": 84, "unit": "%"}]}
{"smiles": "CCCC[C@H](NC(=O)[C@H](CC(C)C)NC(=O)[C@H](CCC(N)=O)NC(=O)[C@@H](NC(=O)[C@H](CCC(=O)O)NC(=O)C(C)(C)NC(=O)[C@@H](NC(=O)C(C)(C)N)C(C)C)[C@@H](C)CC)C(=O)N[C@@H](Cc1c[nH]cn1)C(=O)N[C@@H](CCC(N)=O)C(=O)N[C@@H](CCCCNC(=N)N)C(=O)NC(C)(C)C(=O)NC(C)(C)C(=O)NC(Cc1ccc(-c2ccc(OC)cc2CC)cc1)C(=O)NC(CCCc1ccccc1)C(N)=O", "note": "(some centres unmarked) [Seq. ID. 742] (H-[Aib]V[Aib]EIQL[Nle]HQ[hArg][Aib][Aib][ξBip(2'-Et-4'-OMe)][ξhhPhe]-NH2)", "values": [{"measurement": "% decrease in serum PO4 Levels (mg/dl) vs control", "setting": "0.1 mg/kg", "result": 92, "unit": "%"}, {"measurement": "% increase in serum Ca^2+ Levels (mg/dl) vs control", "setting": "0.1 mg/kg", "result": 89, "unit": "%"}]}
